Experimental data as given in patent publication US12162858B2, “Quinoline derivatives as inhibitors of AXL/MER RTK and CSF1R” (QURIENT CO., LTD., priority 2018, dated 2024).

Legend:
CSF1R (M-NFS-60 cells) = assay: Cell Titer-Glo viability assay using M-NFS-60 cells; assay type: cell-based; conditions: Mus musculus, read-out: Cellular CSF1R activity by M-NFS-60 viability assay (IC50 activity range)
Experimental: M-NFS-60 cells were cultured in RPMI-1640 medium containing 10% FBS, 0.05 mM 2-Mercaptoethanol, penicillin (100 U/ml)/streptomycin ([…]) and supplemented with 62 ng/ml recombinant human M-CSF at 37° C./5% CO2. Aliquots of the cells were seeded into a 96-well plate (2×10^5 cells in 100 μl/well) and then incubated at 37° C./5% CO2 1 h. Dissolve compound in 100% DMSO to make 10 mM stock solutions (Aliquots stored in the Nitrogen Cabinet). Dilute 10 mM compounds solutions for 2-fold in 100% DMSO to get 5 mM solutions (10 μl+10 μl DMSO), and then make a 3-fold serial dilution (10 μl+20 μl DMSO) for 10 doses. For reference compounds: Dilute 10 mM compounds solutions for 20-fold in 100% DMSO to get 0.5 mM solutions (2 μl+38 μl DMSO), and then make a 3-fold serial dilution (10 μl+20 μl DMSO) for 8 doses. The 96-well plate was equilibrated at room temperature for 30 min. 50 μl of CellTiter-Glo® Reagent added to each well and mixed for 2 min on an orbital shaker to induce cell lysis. The 96-well plate was incubated at room temperature for 10 min to stabilize luminescent signal. Luminescent was measured […] by EnVison plate reader. Calculations and Formulas: The following calculations and formulas are used for data analysis using XL Fit software: The curve fitting was made using the Sigmoidal Dose-Response Model (Fit model, 205).

Axl = molecular target: T1, Axl (Homo sapiens, UniProt P30530); assay: Cellular Axl inhibition ELISA (p-Axl, Gas6-induced) using H1299 cells; assay type: cell-based; parameters: especially H1299 cell endogenously expresses Axl; endogenous in cells; host or cells: H1299; conditions: read-out: Cellular Axl activity by H1299 Elisa (IC50)
T1 sequence (P30530 26-894): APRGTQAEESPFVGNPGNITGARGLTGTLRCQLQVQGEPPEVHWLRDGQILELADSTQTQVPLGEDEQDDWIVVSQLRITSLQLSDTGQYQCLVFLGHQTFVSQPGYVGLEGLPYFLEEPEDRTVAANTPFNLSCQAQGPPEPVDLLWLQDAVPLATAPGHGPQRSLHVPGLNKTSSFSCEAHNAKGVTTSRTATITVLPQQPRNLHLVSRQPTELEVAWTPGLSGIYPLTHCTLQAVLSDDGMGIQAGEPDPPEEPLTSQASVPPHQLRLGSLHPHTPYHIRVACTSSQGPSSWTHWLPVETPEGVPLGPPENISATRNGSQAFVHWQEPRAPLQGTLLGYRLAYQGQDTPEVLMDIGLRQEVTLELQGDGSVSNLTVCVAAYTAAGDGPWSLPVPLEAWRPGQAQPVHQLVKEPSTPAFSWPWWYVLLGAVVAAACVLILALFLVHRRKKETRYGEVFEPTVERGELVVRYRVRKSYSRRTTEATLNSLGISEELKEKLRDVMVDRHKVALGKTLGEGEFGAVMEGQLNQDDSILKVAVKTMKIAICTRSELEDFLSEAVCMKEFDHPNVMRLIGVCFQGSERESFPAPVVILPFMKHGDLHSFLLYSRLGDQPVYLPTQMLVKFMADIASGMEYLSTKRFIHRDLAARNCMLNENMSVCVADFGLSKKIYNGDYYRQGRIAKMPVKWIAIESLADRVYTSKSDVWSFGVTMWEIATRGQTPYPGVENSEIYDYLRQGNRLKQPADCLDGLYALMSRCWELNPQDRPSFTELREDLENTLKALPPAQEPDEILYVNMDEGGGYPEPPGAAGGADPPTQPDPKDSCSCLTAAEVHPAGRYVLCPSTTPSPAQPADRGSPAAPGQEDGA
Experimental: Axl is expressed in several of malignant cancer cells; especially H1299 cell endogenously expresses Axl; and an increased phosphorylation of Axl (p-Axl) can be observed, when induced by the Axl ligand, Ga6.
The H1299 cells should be 40-80% confluent in the cell culture flask. Then cells are washed with DPBS and trypsinized. After centrifugation, the cell pellet is re-suspended with pre-warmed culture medium (RPMI1640, 10% FBS) and cells are separated by pipetting 6 times up and down with a 10 ml serological pipette. The cell suspension was diluted to a final concentration of 1.25×10^5 cells/ml. Then 80 μl/well cell suspension is added to the plate. Cell-plates are incubated at 37° C./5% CO2 overnight. Compounds were dissolved by DMSO to 10 mM, and kept in nitrogen cabinet. Prepare the compounds stock plate, the reference compounds concentration starts at 0.50 mM (5 μl+95 μl DMSO), and the tested compounds start at 1.5 mM (6 μl+34 μl DMSO); Then make a 3-fold dilution series (10 doses) compounds. Then dilute compounds by the medium in the mid plate (2 μl compounds+198 μl medium). Transfer 20 μl diluted compounds from mid plate to the cell coated plate. Cell-plates are incubated at 37° C./5% CO2 for 24 h. Add 25 μl of Human Gas6 (1000 ng/ml) to 96-well plate; the final concentration of Human Gas6 is 200 ng/ml. Incubate the plates at 37° C./5% CO2 for 1 h. Remove medium and wash cells once with 300 ul/well ice-cold 1×PBS. Then remove PBS and add 100 μl/well ice-cold 1× Cell Lysis Buffer to 96-well plate. The plate is shaken for 40 min at 4° C. Then plates can be stored at −20° C. After the micro-wells strips have reached room temperature, break off the required number of micro-wells. Place the micro-wells in the strip holder. Unused micro-wells must be resealed and stored at 4° C. immediately. Add 60 μl of cell lysate to the appropriate well. Seal with tape and press firmly onto top of micro-wells. Incubate the plate at 37° C. for 2 h. Gently remove the tape and wash wells 5 times with 1× Wash Buffer, 300 μl each time for each well. Add 100 μl of reconstituted Detection Antibody (green color) to each well. Seal with tape and incubate the plate at 37° C. for 1 h. Repeat wash procedure. Add 100 μl of reconstituted HRP Linked secondary antibody to each well. Seal with tape and incubate the plate at 37° C. for 30 min. Repeat wash procedure. Add 100 μl of TMB Substrate to each well. Seal with tape and incubate the plate at 37° C. for 15 min. Add 100 μl of STOP Solution to each well. Shake gently for a few seconds. Read absorbance at 450 nm within 30 min after adding STOP Solution. Calculations and Formulas: The following calculations and formulas are used for data analysis using XL Fit software: The curve fitting was made using the Sigmoidal Dose-Response Model (Fit model, 205).

SMILES | IC50 (Axl) [µM] | IC50 (CSF1R (M-NFS-60 cells)) [µM]
COc1cc2nccc(Oc3ccc(NC(=O)c4nn(CC(C)C)cc4OCC(F)(F)F)cn3)c2cc1OC [Compound 103] | < 0.5 | 1 to 10
COc1cc2nccc(Oc3ccc(NC(=O)c4nn(C5CCOC5)cc4OCC(F)(F)F)nn3)c2cc1OC (stereo not shown) [Compound 128] | < 0.5 | 1 to 10
COc1cc2nccc(Oc3ccc(NC(=O)c4nn(C5CC5)cc4OCC4COC4)nc3)c2cc1OC [Compound 143] | < 0.5 | 1 to 10
COc1cc2nccc(Oc3ccc(NC(=O)c4nn(C5CCN(C)C5)cc4OCC(F)(F)F)cc3C)c2cc1OC (stereo not shown) [Compound 98] | ≥ 1 | 1 to 10
COc1cc2nccc(Oc3ccc(NC(=O)c4nn(CCN)cc4OCC(F)(F)F)cn3)c2cc1OC [Compound 135] | ≥ 1 | ≥ 10
CNCCn1cc(OCC(F)(F)F)c(C(=O)Nc2ccc(Oc3ccnc4cc(OC)c(OC)cc34)cc2)n1 [Compound 119] | ≥ 1 | 1 to 10
COc1cc2nccc(Oc3ccc(NC(=O)c4nn(CCOC5CC5)cc4OCC(F)(F)F)nn3)c2cc1OC [Compound 120] | 0.5 to 1 | 1 to 10
COc1cc2nccc(Oc3ccc(NC(=O)c4nn(C5CC5)cc4OCC4CNC4)nc3)c2cc1OC [Compound 144] | ≥ 1 | ≥ 10

Further lines, with some results ahead:

IC50 (Axl) [µM] | SMILES | IC50 (CSF1R (M-NFS-60 cells)) [µM]
< 0.5 | COc1cc2nccc(Oc3ccc(NC(=O)c4nn(CC(C)O)cc4OCC4CCC4)nc3)c2cc1OC (stereo not shown) [Compound 163] | 1 to 10
≥ 1 | COc1cc2nccc(Oc3ccc(NC(=O)c4nn(C5CCN(C)C5)cc4OCC(F)(F)F)nn3)c2cc1OC (stereo not shown) [Compound 157] | 1 to 10
< 0.5 | COc1cc2nccc(Oc3ccc(NC(=O)c4nn(CCOC5CC5)cc4OCC(F)(F)F)nc3)c2cc1OC [Compound 153] | < 1
< 0.5 | COc1cc2nccc(Oc3ccc(NC(=O)c4nn(C5CC5)cc4NCC(F)(F)F)nc3)c2cc1OC [Compound 145] | < 1
< 0.5 | COc1cc2nccc(Oc3ccc(NC(=O)c4nn(C5CC5)cc4NCCC(F)(F)F)nn3)c2cc1OC [Compound 146] | 1 to 10
< 0.5 | COc1cc2nccc(Oc3ccc(NC(=O)c4nn(C5CC5)cc4OC(C)C)nn3)c2cc1OC [Compound 147] | 1 to 10
